Measurements reported in PubChem BioAssay AID1963977 (Molecular Pharmacology Branch, DTP, NCI, 2024).

System: 624824-186-R-J3-PDC multicell spheroids, viability
Experiment: Anticancer human tumor 624824-186-R-J3-PDC patient-derived colon adenocarcinoma cell line growth inhibition [PI3K]
Settings: for viability, T/C: stronger effect = lower value
How it was run: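 Targeted small molecules plus PI3K inhibitors, half-log dose series from Cmax (default top 10 microM), were applied to heterotypic spheroids of cancer cells with HUVEC and MSCs. Viability indicated growth inhibition.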

[1] = curve of first compound, second compound 0.00316 µM
[2] = curve of first compound, second compound 0.01 µM
[3] = curve of first compound, second compound 0.0316 µM
[4] = curve of first compound, second compound 0.1 µM
[5] = curve of first compound, second compound 0.316 µM
[6] = curve of first compound, second compound 1 µM
[7] = second compound 0.00316 µM, first compound 0.0316 µM
[8] = second compound 0.00316 µM, first compound 0.1 µM
[9] = second compound 0.00316 µM, first compound 0.316 µM
[10] = second compound 0.00316 µM, first compound 1 µM
[11] = second compound 0.00316 µM, first compound 3.16 µM
[12] = second compound 0.00316 µM, first compound 10 µM
[13] = second compound 0.01 µM, first compound 0.0316 µM
[14] = second compound 0.01 µM, first compound 0.1 µM
[15] = second compound 0.01 µM, first compound 0.316 µM
[16] = second compound 0.01 µM, first compound 1 µM
[17] = second compound 0.01 µM, first compound 3.16 µM
[18] = second compound 0.01 µM, first compound 10 µM
[19] = second compound 0.0316 µM, first compound 0.0316 µM
[20] = second compound 0.0316 µM, first compound 0.1 µM
[21] = second compound 0.0316 µM, first compound 0.316 µM
[22] = second compound 0.0316 µM, first compound 1 µM
[23] = second compound 0.0316 µM, first compound 3.16 µM
[24] = second compound 0.0316 µM, first compound 10 µM
[25] = second compound 0.1 µM, first compound 0.0316 µM
[26] = second compound 0.1 µM, first compound 0.1 µM
[27] = second compound 0.1 µM, first compound 0.316 µM
[28] = second compound 0.1 µM, first compound 1 µM
[29] = second compound 0.1 µM, first compound 3.16 µM
[30] = second compound 0.1 µM, first compound 10 µM
[31] = second compound 0.316 µM, first compound 0.0316 µM
[32] = second compound 0.316 µM, first compound 0.1 µM
[33] = second compound 0.316 µM, first compound 0.316 µM
[34] = second compound 0.316 µM, first compound 1 µM
[35] = second compound 0.316 µM, first compound 3.16 µM
[36] = second compound 0.316 µM, first compound 10 µM
[37] = second compound 1 µM, first compound 0.0316 µM
[38] = second compound 1 µM, first compound 0.1 µM
[39] = second compound 1 µM, first compound 0.316 µM
[40] = second compound 1 µM, first compound 1 µM
[41] = second compound 1 µM, first compound 3.16 µM
[42] = second compound 1 µM, first compound 10 µM
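Note: spheroids exposed to agents for seven days before luminescence read.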
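Throughout, for viability, T/C: luminescent signal used as a stand-in for spheroid viability; percent viability relative to DMSO vehicle control wells taken as 100%.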

## CC(Cn1ccc(-c2ccc(C#N)c(Cl)c2)n1)NC(=O)c1cc(C(C)O)[nH]n1 (stereo not drawn) + COc1c(OCCCN2CCOCC2)ccc2c3n(c(=NC(=O)c4cnc(N)nc4)nc12)CCN3
[1]
  IC50: > 10 µM
[2]
  IC50: > 10 µM
[3]
  IC50: > 10 µM
[4]
  IC50: > 10 µM
[5]
  IC50: 0.239 µM
[6]
  IC50: < 0.0316 µM
[7]
  viability, T/C: 106%
[8]
  viability, T/C: 98.6%
[9]
  viability, T/C: 101%
[10]
  viability, T/C: 96.3%
[11]
  viability, T/C: 103%
[12]
  viability, T/C: 98.2%
[13]
  viability, T/C: 101%
[14]
  viability, T/C: 93.2%
[15]
  viability, T/C: 98.2%
[16]
  viability, T/C: 103%
[17]
  viability, T/C: 108%
[18]
  viability, T/C: 105%
[19]
  viability, T/C: 96.6%
[20]
  viability, T/C: 97.4%
[21]
  viability, T/C: 87.3%
[22]
  viability, T/C: 95.6%
[23]
  viability, T/C: 91.9%
[24]
  viability, T/C: 84.5%
[25]
  viability, T/C: 74.5%
[26]
  viability, T/C: 79.9%
[27]
  viability, T/C: 78%
[28]
  viability, T/C: 76.6%
[29]
  viability, T/C: 77%
[30]
  viability, T/C: 68.7%
[31]
  viability, T/C: 54.6%
[32]
  viability, T/C: 50.1%
[33]
  viability, T/C: 49.8%
[34]
  viability, T/C: 48.2%
[35]
  viability, T/C: 40.9%
[36]
  viability, T/C: 38.8%
[37]
  viability, T/C: 26.9%
[38]
  viability, T/C: 28.1%
[39]
  viability, T/C: 28.3%
[40]
  viability, T/C: 28.2%
[41]
  viability, T/C: 24.9%
[42]
  viability, T/C: 23.6%

## Cn1ncc(Cl)c1-c1cc(C(=O)NC(CN)Cc2cccc(F)c2)sc1Cl (stereo not drawn) + COc1c(OCCCN2CCOCC2)ccc2c3n(c(=NC(=O)c4cnc(N)nc4)nc12)CCN3
[1]
  IC50: 9.34 µM
[2]
  IC50: > 10 µM
[3]
  IC50: 4.16 µM
[4]
  IC50: 2.59 µM
[5]
  IC50: 0.455 µM
[6]
  IC50: < 0.0316 µM
[7]
  viability, T/C: 106%
[8]
  viability, T/C: 96.6%
[9]
  viability, T/C: 92%
[10]
  viability, T/C: 74.8%
[11]
  viability, T/C: 68.5%
[12]
  viability, T/C: 47.2%
[13]
  viability, T/C: 97.6%
[14]
  viability, T/C: 99.3%
[15]
  viability, T/C: 95%
[16]
  viability, T/C: 71.1%
[17]
  viability, T/C: 57.3%
[18]
  viability, T/C: 48.6%
[19]
  viability, T/C: 94.2%
[20]
  viability, T/C: 96.4%
[21]
  viability, T/C: 83.6%
[22]
  viability, T/C: 82.5%
[23]
  viability, T/C: 52.8%
[24]
  viability, T/C: 37.2%
[25]
  viability, T/C: 78.8%
[26]
  viability, T/C: 80.5%
[27]
  viability, T/C: 75.4%
[28]
  viability, T/C: 60.9%
[29]
  viability, T/C: 48.8%
[30]
  viability, T/C: 33%
[31]
  viability, T/C: 54.2%
[32]
  viability, T/C: 54.5%
[33]
  viability, T/C: 51.5%
[34]
  viability, T/C: 46%
[35]
  viability, T/C: 39.9%
[36]
  viability, T/C: 25.9%
[37]
  viability, T/C: 32.4%
[38]
  viability, T/C: 26.8%
[39]
  viability, T/C: 27.8%
[40]
  viability, T/C: 32.2%
[41]
  viability, T/C: 29.7%
[42]
  viability, T/C: 21.7%

## CC(Cn1ccc(-c2ccc(C#N)c(Cl)c2)n1)NC(=O)c1cc(C(C)O)[nH]n1 (stereo not drawn) + CC(Nc1ncnc2nc[nH]c12)c1cc2cccc(Cl)c2c(=O)n1-c1ccccc1
[3]
  IC50: > 10 µM
[4]
  IC50: > 10 µM
[5]
  IC50: > 10 µM
[6]
  IC50: > 10 µM
Curve of first compound, second compound 3.16 µM
  IC50: > 10 µM
Curve of first compound, second compound 10 µM
  IC50: > 10 µM
[19]
  viability, T/C: 104%
[20]
  viability, T/C: 97%
[21]
  viability, T/C: 98.8%
[22]
  viability, T/C: 99.6%
[23]
  viability, T/C: 105%
[24]
  viability, T/C: 109%
[25]
  viability, T/C: 104%
[26]
  viability, T/C: 102%
[27]
  viability, T/C: 95.3%
[28]
  viability, T/C: 104%
[29]
  viability, T/C: 108%
[30]
  viability, T/C: 97.7%
[31]
  viability, T/C: 103%
[32]
  viability, T/C: 103%
[33]
  viability, T/C: 103%
[34]
  viability, T/C: 104%
[35]
  viability, T/C: 115%
[36]
  viability, T/C: 117%
[37]
  viability, T/C: 102%
[38]
  viability, T/C: 111%
[39]
  viability, T/C: 100%
[40]
  viability, T/C: 115%
[41]
  viability, T/C: 99.6%
[42]
  viability, T/C: 113%
Second compound 3.16 µM, first compound 0.0316 µM
  viability, T/C: 96.3%
Second compound 3.16 µM, first compound 0.1 µM
  viability, T/C: 101%
Second compound 3.16 µM, first compound 0.316 µM
  viability, T/C: 112%
Second compound 3.16 µM, first compound 1 µM
  viability, T/C: 97.1%
Second compound 3.16 µM, first compound 3.16 µM
  viability, T/C: 109%
Second compound 3.16 µM, first compound 10 µM
  viability, T/C: 104%
Second compound 10 µM, first compound 0.0316 µM
  viability, T/C: 93.2%
Second compound 10 µM, first compound 0.1 µM
  viability, T/C: 99%
Second compound 10 µM, first compound 0.316 µM
  viability, T/C: 94.2%
Second compound 10 µM, first compound 1 µM
  viability, T/C: 88.2%
Second compound 10 µM, first compound 3.16 µM
  viability, T/C: 91.8%
Second compound 10 µM, first compound 10 µM
  viability, T/C: 95.6%

## CNC(=O)c1ccc(N2C(=S)N(c3ccc(C#N)c(C(F)(F)F)c3)C(=O)C2(C)C)cc1F
Compound 0.0316 µM
  viability, T/C: 103% [middle of 4 runs]
Compound 0.1 µM
  viability, T/C: 102% [middle of 4 runs]
Compound 0.316 µM
  viability, T/C: 107% [middle of 4 runs]
Compound 1 µM
  viability, T/C: 104% [middle of 4 runs]
Compound 3.16 µM
  viability, T/C: 106% [middle of 4 runs]
Compound 10 µM
  viability, T/C: 104% [middle of 4 runs]
Curve of compound
  IC50: > 10 µM
